Data taken from US9476883B2, “Cellular recognition conjugates and methods of use for the histological analysis of cancer tissue using MALDI-MS imaging” (GEORGIA STATE UNIVERSITY RESEARCH FOUNDATION, priority 2011, dated 2016).
Entries after “also recorded” stand apart in the source; their conditions may differ.

Key:
[1] = tested on: cells expressing sialyl Lewis X antigen; assay: MALDI-IMS imaging of a renal cell carcinoma tissue slice incubated with the imaging agent; type: binding; details: fresh-frozen renal tissue with tumor and normal regions, 7 μm slice, 2 ng/μl in methanol, overnight at 4° C., no matrix
Experimental: A tissue slice containing renal cell carcinoma was immunostained (mouse monoclonal antibody, GenWay Biotech San Diego, Calif.) that expressed regions coincident with the tumor area (dark stained bottom tip area of FIG. 3; confirmed by pathological analysis).
An adjacent tissue slice (7 μm) was placed on a conductive slide and incubated with the imaging agent of Example 3 in 100% methanol (2 ng/μl) in a humid chamber overnight at 4° C. Slides were washed for 5 minutes in PBS followed by brief water wash to remove any unbound material. The slides are placed in a desiccator for 20 minutes and analyzed directly by MALDI-TOF (no matrix is added) in the reflectron mode using a laser raster width of 200 μm.
The stabilized carbocation is used in this example located and confirm immunological and pathology analysis of this sample that the MALDI indicated region corresponded to the area associated with cancerous tissue.

[2] = tested on: renal cell carcinoma tissue; assay: MALDI-IMS of alcohol fixed (UMFIX/Sakura) renal cell carcinoma tissue exposed to the imaging agent; type: binding
Description: FIG. 4 depicts the MALDI-IMS of a renal cell carcinoma tissue sample exposed to the imaging agent of Example 3. FIG. 5 depicts the same tissue sample stained with Sakura/UMFx alcohol.
These red pixels correlate to the MALDI peaks in the spectra shown in FIG. 1 and the color intensity is related to peak abundance as shown in the expression scale. Peaks were obtained in the absence of any chemical matrix. […] As such, this provides a method for probing tumor tissue microarrays prepared from alcohol or formalin fixed tissues.

COc1ccc(C(SCCC(=O)NCCCn2cc(COc3cc(C(=O)N(C)Cc4c5ccccc5c(CN(C)Cc5ccccc5B(O)O)c5ccccc45)ccc3C(=O)N(C)Cc3c4ccccc4c(CN(C)Cc4ccccc4B(O)O)c4ccccc34)nn2)(c2ccc(OC)cc2)c2ccc(OC)c(C#CCCC(=O)NCc3ccccc3)c2)cc1 [Example 3, [({[({[({2-[(1-{3-[({3-[5-(Benzylamino)-5-oxopent-1-yn-1-yl]-4-methoxyphenyl}bis(4-methoxyphenyl)methyl)thio]propanamido}prop-3-yl)-1H-1,2,3-triazol-4-yl]methoxy}terephthaloyl)bis(methylazanediyl)]bis(methylene)}bis(anthracene-10,9-diyl))bis(methylene)]bis(methylazanediyl)}bis(methylene))bis(2,1-phenylene)]-diboronic acid]
binding of the imaging agent to tissue, detected as stabilized carbocation in MALDI-IMS [1]: bound only to the cells expressing sialyl Lewis X antigen
binding of the imaging agent to alcohol fixed tumor tissue [2]: affixed to the cell surface; also recorded: capable of binding to alcohol fixed renal tissues
